Results published in patent US8663701B2, “Compositions containing ultra-micronized palmitoyl-ethanolamide” (priority 2009, dated 2014).

Legend:
[1] = test system: cutaneous reaction induced by Ascaris suum; test: Cutaneous reaction induced by Asc S1 antigen in dogs sensitized to Ascaris suum; format: in vivo, Beagle dog; conditions: for Inhibition on the cutaneous reaction induced by Ascaris suum: 10 mg/Kg oral; for Inhibition of the cutaneous reaction: between 1 and 4 hours after treatment
Experimental: Beagle dog spontaneously sensitized to Ascaris suum were used.
A 2% solution of Evans Blue in saline was administered endovenously (0.4 mL/Kg) 30 minutes before the intradermal injection of Asc S1 antigen, so as to be able to visualize the dermal reaction area.
The dermal reaction area was measured 10 minutes after the injection of Asc S1 antigen.

[2] = test system: TNF-alpha, tissue mast cells; test: LPS-induced acute intestinal inflammation; format: in vivo, mouse; conditions: 18 hours after LPS
Experimental: (§1) An acute inflammation was induced in the animal by means of intra-peritoneal injection of LPS (lipopolysaccharide): the animals were sacrificed after 18 hours from the LPS administration. Instead, a chronic inflammation at the colon level was induced by administering the animal with DNBS (2,4-Dinitrobenzene sulfonic acid): in this case, the animals were sacrificed after 96 hours from the DNBS administration.
(§2) The level of TNF-alpha and the percent variation in the number of mast cells were assessed on intestinal tissue.

[3] = Concentration of PEA in serum after single oral administration; format: in vivo, Beagle dogs; conditions: 15 mg/Kg oral, fasting
[4] = test system: TNF-alpha, NGF, NF-kB, IL-1 alpha; test: Sciatic nerve ligation (CCI), spinal parameters at day 10; format: in vivo, mouse; conditions: for IL-1alpha / NGF / TNF-alpha: spinal area, day 10 after ligation (CCI), per os once per day
Source text: After sciatic nerve ligation—CCI (carried out as described by Costa et al., Pain 2008; 139:541-550), a series of altered spinal parameters have been assessed in the mouse, following peripheral damage, and related to the activation of microglial cells induced by the peripheral chronic distress. In particular, TNF-alpha, NGF, NF-kB according to the method described by Costa et al. (see supra), and IL-1 alpha according to the method described by Fiorentino et al., 2008; 58(10):3100-3109 have been measured.
A 0.5% solution in carboxymethyl cellulose has been used as a vehicle.
The measurements of the parameters indicated, above have been carried out at day 10 from the sciatic nerve ligation, after sacrifice of the test animal and sampling of the spinal area.

[5] = test system: neuropathic pain at the lower limbs; test: Neuropathic pain in Multiple Sclerosis patients, VAS scale; format: in vivo; conditions: for VAS after the treatment of 60 days (average value): tablets
Experimental: The pain intensity was measured with a VAS (Visual Analogue Scale) scale both before and at the end of the treatment with palmitoylethanolamide.

[6] = test system: TNF-alpha, tissue mast cells; test: DNBS-induced chronic intestinal inflammation; format: in vivo, mouse; conditions: 96 hours after DNBS
Experimental: as §1, §2

[7] = test system: protein NGF, protein TNF-alpha; test: Carrageenan-induced granuloma; format: in vivo, rat; conditions: for Expression of protein NGF in the dorsal root ganglia / Expression of protein NGF in the granulomatous tissue / Expression of protein TNF-alpha in the dorsal root ganglia: 96 hours, 10 mg/Kg oral every 12 hours for 3 days
Experimental: The pharmacological model of granuloma induced, in the rat, by the introduction in the subcutaneous tissue of carrageenan-soaked sponge has been used. The model is described in De Filippis et al., J Cell Mol Med. 2009; 13(6):1086-1095.
The administrations were carried out at time 0 (immediately before the introduction of the sponges), and every 12 hours for 3 consecutive days. The unit doses administered were 10 mg/Kg.
The biochemical parameters relative to pro-algogenic mediators were detected, after sacrifice of the animal occurred after 96 hours from the introduction of the sponges, both in the granulomatous tissue (expression of the protein NGF), and at the level of the dorsal root ganglia (RDG) (expression of the protein TNF-alpha and the protein NGF).

[8] = Modulated Differential Scanning Calorimetry (MDSC); format: physicochemical; conditions: room temperature; from MDSC spectrum
Source text: The MDSC technique is a known one, the principles and applications of which are described, for example, in S. R. Rabel et al., Journal of Pharmaceutical and Biomedical Analysis, 21 (1999) 339-345. The tests described in the present patent application have been carried out with an equipment TA DSC Q200.
Such differential calorimetry measurement performed with the MDSC technique have shown an outstanding difference between the initial product and the ultra-micronized product, which difference consists in the appearance, in the product subjected to ultra-micronization, of a positive peak of exothermal transition at a temperature between 101° C. and 103° C., which is distinctive of structures with a high energy content; in the original product, such peak results, on the contrary, to be negative (see FIGS. 3 and 4). The positive exothermal transition peak has to be interpreted as the signal of the heat developed by the transformation of the higher energy content form (formed during the ultra-micronization process) into the native crystalline form with lower energy content.
The net energy transition which characterizes the positive peak at 101-103° C. of FIG. 4 is symptomatic of such stability. Differently, progressive transitions at lower temperatures should have to be noticed.

[9] = test system: 2-arachidonoylglycerol (2-AG); test: Concentration of 2-AG in serum after single oral administration of PEA; format: in vivo, Beagle dogs; conditions: for Concentration in serum, 2AG: 15 mg/Kg oral, fasting; for Increase of 2-AG in blood compared to the basal levels: administration per os
Source text: Dose measurements in blood have been carried out of 2-arachidonoyl-glycerol (2-AG), an endocannabinoid of great importance in the modulation of the activation of cells capable of expressing the cannabinoid CB2 receptor; this is the case of many cells belonging to the immune system as the microglia.

[10] = Particle size profile, laser particle size analyzer (LALLS); format: physicochemical; conditions: ultra-micronization
Source text: In order to measure the particle size, a laser particle size analyzer (Malvern Mastersizer) with LALLS (Low Angle Laser Light Scattering) technique using the Fraunhofer theory of computation is employed.

IL-1 beta, NO2 = test: Beta-amyloid-induced neuroinflammation; format: in vivo, C57BL/6 mice; conditions: for Effect on the levels of the biological parameters considered: IL-1 beta and NO2 in hippocampus; for Hippocampal levels of NO2 / Hippocampal tissue levels of IL-1 beta (with immunofluorescence method) (count of cells immunopositive to THE-1 beta): per os daily for 8 days after beta-amyloid inoculation
Experimental: C57BL/6 mice with age ranging between 3 and 5 months have been used, divided in 3 different groups (20 animals per group). […] The administrations were carried out daily for 8 days successive to the inoculation of the beta-amyloid. The third group was administered with the vehicle alone. After sacrifice of the animal, IL-1 beta and NO2 dose level was measured in the hippocampal homogenate via an immunofluorescence method.
The experimental method described by Esposito et al., Br J Pharmacol. 2007; 151:1272-1279 has been used.

[11] = Time 0 hours (before administration)
[12] = vehicle 100, listed as Ultra-micronized PEA
[13] = Time 0 (immediately before administration)
[14] = listed as ultra-micronized PEA, 10 mg/kg
[15] = vehicle 100, listed as Micronized PEA
[16] = listed as micronized PEA, 10 mg/kg

CCCCCCCCCCCCCCCC(=O)NCCO [Ultra-micronized palmitoylethanolamide, palmitoylethanolamide]
Inhibition on the cutaneous reaction induced by Ascaris suum [1, 11]: 0%
Inhibition on the cutaneous reaction induced by Ascaris suum ([1]; Time 1 hours, 10 mg/kg): 20.8 ± 5.4%
Inhibition on the cutaneous reaction induced by Ascaris suum ([1]; Time 2 hours, 10 mg/kg): 32.4 ± 4.7%
Inhibition on the cutaneous reaction induced by Ascaris suum ([1]; Time 4 hours, 10 mg/kg): 26.0 ± 4.9%
Inhibition on the cutaneous reaction induced by Ascaris suum ([1]; Time 8 hours, 10 mg/kg): 15.1 ± 9.6%
Inhibition on the cutaneous reaction induced by Ascaris suum ([1]; Time 24 hours, 10 mg/kg): 4.5 ± 6.7%
Inhibition of the cutaneous reaction ([1]; listed as ultra-micronized PEA): above 20%
Expression of protein TNF-alpha ([2]; listed as Ultra-micronized PEA): 75.6 ± 12.3 OD = mm^2
Number of tissue mast cells, percent of vehicle [2, 12]: 41%
Concentration in serum, PEA [3, 13]: 12.4 nM
Concentration in serum, PEA ([3]; Time 1 h, 15 mg/kg): 22.4 nM
Concentration in serum, PEA ([3]; Time 2 h, 15 mg/kg): 16.2 nM
Concentration in serum, PEA ([3]; Time 3 h, 15 mg/kg): 14.1 nM
Effect on all the biochemical parameters under investigation ([4]; CCI, day 10): substantial normalization
IL-1alpha ([4]; listed as ultra-micronized PEA): 2.50 ± 0.02 pg/mg prot
NGF ([4]; listed as ultra-micronized PEA): 10.2 ± 2.0 pg/mg prot
TNF-alpha ([4]; listed as ultra-micronized PEA): 44.1 ± 2.8 pg/mg prot
VAS after the treatment of 60 days (average value) ([5]; 600 mg per day for 60 days): 2.85
Effect on pain (VAS) ([5]; 600 mg per day for 60 days, Wilcoxon p=0.001): marked decrease of the pain
VAS before the treatment (average value) [5]: 6.52
Expression of protein TNF-alpha ([6]; listed as Ultra-micronized PEA): 62.9 ± 11.8 OD = mm^2
Tissue mast cell number, percent of vehicle [6, 12]: 26%
Expression of protein NGF in the dorsal root ganglia [7]: 43.8 ± 3.1 OD = mm^2
Expression of protein NGF in the granulomatous tissue [7, 14]: 6.1 ± 1.6 OD = mm^2
Expression of protein TNF-alpha in the dorsal root ganglia [7, 14]: 96.6 ± 10.4 OD = mm^2
Decrease of NGF levels ([7]; compared to the micronized PEA): much more marked decrease
Stability of the high energy crystalline form [8]: substantially stable at room temperature
Concentration in serum, 2AG [9, 13]: 1.0 pmol/mL
Concentration in serum, 2AG ([9]; Time 1 h, 15 mg/kg): 3.6 pmol/mL
Concentration in serum, 2AG ([9]; Time 2 h, 15 mg/kg): 4.2 pmol/mL
Concentration in serum, 2AG ([9]; Time 3 h, 15 mg/kg): 4.7 pmol/mL
Increase of 2-AG in blood compared to the basal levels [9]: higher than 400%
Particle size <0.6 microns [10]: 2.0%
Particle size <1 microns [10]: 14.7%
Particle size <2 microns [10]: 59.6%
Particle size <6 microns [10]: 99.9%
Particle size <10 microns [10]: 100%
Particle size >14 microns [10]: Absent
Effect on the levels of the biological parameters considered (IL-1 beta, NO2; listed as ultra-micronized PEA): high decrease
Hippocampal levels of NO2 (IL-1 beta, NO2; listed as ultra-micronized PEA): 3.1 ± 0.6 μM/μg of proteins from hippocampal homogeneate
Hippocampal tissue levels of IL-1 beta (with immunofluorescence method) (count of cells immunopositive to THE-1 beta) (IL-1 beta, NO2; listed as ultra-micronized PEA): 21.8 ± 5.4

CCCCCCCCCCCCCCCC(=O)NCCO [Micronized palmitoylethanolamide, palmitoylethanolamide, reference compound]
Inhibition on the cutaneous reaction induced by Ascaris suum [1, 11]: 0%
Inhibition on the cutaneous reaction induced by Ascaris suum ([1]; Time 1 hours, 10 mg/kg): 9.4 ± 2.6%
Inhibition on the cutaneous reaction induced by Ascaris suum ([1]; Time 2 hours, 10 mg/kg): 9.3 ± 4.7%
Inhibition on the cutaneous reaction induced by Ascaris suum ([1]; Time 4 hours, 10 mg/kg): −2.6 ± 4.2%
Inhibition on the cutaneous reaction induced by Ascaris suum ([1]; Time 8 hours, 10 mg/kg): −0.8 ± 2.0%
Inhibition on the cutaneous reaction induced by Ascaris suum ([1]; Time 24 hours, 10 mg/kg): −0.2 ± 2.0%
Inhibition of the cutaneous reaction ([1]; listed as micronized PEA): almost null
Expression of protein TNF-alpha ([2]; listed as Micronized PEA): 128.3 ± 10.8 OD = mm^2
Number of tissue mast cells, percent of vehicle [2, 15]: 86%
concentration at 0 h ([3]; Beagle, dog, serum, po, 15 mg/kg, Time 0 (immediately before administration)): 12.4 nM
concentration at 1 h ([3]; Beagle, dog, serum, po, 15 mg/kg, Time 1 h): 22.2 nM
concentration at 2 h ([3]; Beagle, dog, serum, po, 15 mg/kg, Time 2 h): 15.6 nM
concentration at 3 h ([3]; Beagle, dog, serum, po, 15 mg/kg, Time 3 h): 13.4 nM
IL-1alpha ([4]; listed as micronized PEA): 25.80 ± 2.0 pg/mg prot
NGF ([4]; listed as micronized PEA): 38.6 ± 3.0 pg/mg prot
TNF-alpha ([4]; listed as micronized PEA): 60.4 ± 3.0 pg/mg prot
VAS after the treatment of 60 days (average value) ([5]; 600 mg per day for 60 days): 4.22
VAS before the treatment (average value) [5]: 6.52
Expression of protein TNF-alpha ([6]; listed as Micronized PEA): 134.8 ± 8.4 OD = mm^2
Tissue mast cell number, percent of vehicle [6, 15]: 74%
Expression of protein NGF in the dorsal root ganglia [7, 16]: 50.8 ± 3.0 OD = mm^2
Expression of protein NGF in the granulomatous tissue [7, 16]: 14.6 ± 2.1 OD = mm^2
Expression of protein TNF-alpha in the dorsal root ganglia [7, 16]: 151.1 ± 9.6 OD = mm^2
Concentration in serum, 2AG [9, 13]: 1.0 pmol/mL
Concentration in serum, 2AG ([9]; Time 1 h, 15 mg/kg): 1.2 pmol/mL
Concentration in serum, 2AG ([9]; Time 2 h, 15 mg/kg): 1.6 pmol/mL
Concentration in serum, 2AG ([9]; Time 3 h, 15 mg/kg): 1.7 pmol/mL
Increase of 2-AG in blood compared to the basal levels [9]: about 70%
Effect on the levels of the biological parameters considered (IL-1 beta, NO2; listed as micronized PEA): only a marginal activity
Hippocampal levels of NO2 (IL-1 beta, NO2; listed as micronized PEA): 8.2 ± 2.1 μM/μg of proteins from hippocampal homogeneate
Hippocampal tissue levels of IL-1 beta (with immunofluorescence method) (count of cells immunopositive to THE-1 beta) (IL-1 beta, NO2; listed as micronized PEA): 86.3 ± 7.9
